Target: VcRibB (RibB, 3,4-dihydroxy-2-butanone 4-phosphate synthase) (Vibrio cholerae, UniProt Q9KKP2)
Conditions: two Mn2+ in the active site; non-substrate analogue

VcRibB (RibB, 3,4-dihydroxy-2-butanone 4-phosphate synthase), sequence (Q9KKP2 whole entry): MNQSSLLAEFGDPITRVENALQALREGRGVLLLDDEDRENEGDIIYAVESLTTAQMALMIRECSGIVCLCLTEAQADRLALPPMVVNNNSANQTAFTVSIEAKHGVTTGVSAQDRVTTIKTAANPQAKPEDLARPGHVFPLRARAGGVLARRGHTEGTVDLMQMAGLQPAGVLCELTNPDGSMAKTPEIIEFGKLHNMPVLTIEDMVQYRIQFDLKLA

O=C(CO)[C@H](O)[C@@H](O)COP(=O)(O)O [L-xylulose 5-phosphate]
X-ray crystal structure; EPR: L-xylulose 5-phosphate (L-Xy5P), showing two manganese ions and a significantly different, more twisted binding

Reference: PMC9305975 (Journal of the American Chemical Society, 2022)
